PMC6151865, “Targeting protein biotinylation enhances tuberculosis chemotherapy” (Science Translational Medicine, 2018)
Where two headings read alike, the source gives them in different places.

How the values were obtained:
Rv3406 [1] = target: T1, Rv3406 (Mycobacterium tuberculosis, UniProt P9WKZ1)
Mtb [2] = test: Acid-fast (Kinyoun) staining after Bio-AMS exposure; format: cell-based, Mycobacterium tuberculosis; details: lethal dose (5 µM); after 10 days of exposure
[3] = in vivo
[4] = test system: non-replicating Mtb H37Rv strain; test: Viability of non-replicating Mtb (PBS starvation); format: cell-based, Mycobacterium tuberculosis; details: starvation in PBS
Mtb [5] = format: cell-based, Mycobacterium tuberculosis
[6] = Tolerability at ascending intraperitoneal doses; format: in vivo, CD-1 mice
Description: Groups of three mice received Bio-AMS (50, 100, 250, or 500 mg/kg) via intraperitoneal injection at 4 ml/kg. They were observed continuously for the first half-hour after injection and then at 24 hours after injection.
Table S5. Tolerability of Bio-AMS at ascending intraperitoneal doses in CD-1 mice.a Bio-AMS 50mg/kg (IP) 4 ml/kg
Mouse # Weight ½ h Observation 24h Observation
Bio-AMS 100mg/kg (IP) 4 ml/kg
Bio-AMS 250mg/kg (IP) 4 ml/kg
Bio-AMS 500mg/kg (IP) 4 ml/kg […]
would be tolerated in mice (with plasma concentrations above the MIC for a minimum of 40-50% of the dosing interval). For this, we conducted a dose escalation tolerab ility study in which groups of three mice received ascending IP doses of Bio-AMS. Only the lowest dose of 50 mg/kg was tolerated up to 24 h post injection. Animal weights remained unchanged during the 24 h period post-injection at all doses. Assuming linear pharmacokinetics, a 50 mg/kg dose would deliver plasma concentrations above the MIC for a very small fraction of the dosing

Mtb in mouse macrophages = test: Intracellular Mtb in mouse bone marrow-derived macrophages; details: treated 24 hours after infection
Mtb H37Rv strain = test: Combination of Bio-AMS with rifampicin, ethambutol, isoniazid in liquid culture; format: cell-based, Mycobacterium tuberculosis; details: for bactericidal activity when used individually: Bio-AMS at 1 µM, rifampicin at 6.5 nM, ethambutol at 12.5 µM; for change of MIC by sublethal dose of Bio-AMS: Bio-AMS 1 µM, 3 days pre-exposure; for Mtb inoculum killed: after 20 days of treatment
Mtb [7] = test: MIC measurements (carbon sources, biotin in medium)
in vivo [8] = details: CD-1, mouse
Mtb ∆bioA = format: cell-based, Mycobacterium tuberculosis
[9] = Rifampicin-doxycycline interaction study; details: plasma; for AUC(0-t): female, CD-1, mouse, in vivo, po, Doxycycline AUC[0-8] Mean (SD); for Doxycycline Cmin Mean (SD): daytime
in vivo [10] = details: female, CD-1, mouse, po, 10 mg/kg
bioA TetON-1 Mtb strain = test system: bioA TetON-1 Mtb strain; design: species or system C57BL/6 mice; details: in vivo
[11] = 7 days
in vivo [12] = details: female, NZW, rabbit, lung lesions and plasma, oral
[13] = test system: [H][C@]12CS[C@@H](CCCCC(=O)NS(=O)(=O)NC[C@H]3O[C@@H](n4cnc5c(N)ncnc54)[C@H](O)[C@@H]3O)[C@@]1([H])NC(=O)N2; test: purified protein, by the assay type; details: pH 7.5; 25.0 °C
Rv3406 [14] = target: T1, Rv3406; details: substrate; ref Neres et al., ACS Chem Biol 10, 705-714 (2015); cited from earlier work
[15] = different carbon sources at 0.1%
[16] = rifampicin steady state + doxycycline in diet
[17] = rifampicin single dose plus doxycycline in diet (2000 ppm, 7 days)

Nc1ncnc2c1ncn2[C@@H]1O[C@H](CNS(=O)(=O)NC(=O)CCCC[C@@H]2SC[C@@H]3NC(=O)N[C@@H]32)[C@@H](O)[C@H]1O [Bio-AMS, 5′-[N-(d-biotinoyl)sulfamoyl]amino-5′-deoxyadenosine]
KM value relative to 2-EHS (higher) (Rv3406 [1]): 48 fold
kcat value relative to 2-EHS (lower) (Rv3406 [1]): ~1300 fold
acid-fastness (Mtb [2]): most bacteria no longer stained as acid-fast
F, bioavailability relative to IV exposure ([3]; CD-1, mouse, 25 mg/kg): 241%
elimination in mice ([3]; mouse): rapidly eliminated
exposure ([3]; mouse, ip): good exposure
exposure ([3]; mouse, po): low
growth of Mtb H37Ra (CFU) (Mtb H37Ra): prevented growth
mitochondrial toxicity (HepG2 cells): no signs of mitochondrial toxicity
shift in IC50, glucose medium compared to galactose medium (HepG2 cells; human): 1.05 fold
Mtb viability, non-replicating [4]: no reduction in Mtb viability
bactericidal concentration (Mtb [5]): 5 µM
killing kinetics (Mtb [5]): kinetics similar to that of isoniazid
viability of the culture (Mtb [5]): < 25 CFU/ml
24h Observation ([6]; 50 mg/kg IP, mouse 1): Normal activity
½ h Observation ([6]; 50 mg/kg IP, mouse 1): Active, grooming
24h Observation ([6]; 50 mg/kg IP, mouse 2): Scruffy; some lethargic
½ h Observation ([6]; 50 mg/kg IP, mouse 2): Active, grooming
24h Observation ([6]; 50 mg/kg IP, mouse 3): Normal activity
½ h Observation ([6]; 50 mg/kg IP, mouse 3): Active, grooming
24h Observation ([6]; 100 mg/kg IP, mouse 4): Normal activity; grooming
½ h Observation ([6]; 100 mg/kg IP, mouse 4): Normal activity
24h Observation ([6]; 100 mg/kg IP, mouse 5): Dead
½ h Observation ([6]; 100 mg/kg IP, mouse 5): Normal activity
24h Observation ([6]; 100 mg/kg IP, mouse 6): Euthanized
½ h Observation ([6]; 100 mg/kg IP, mouse 6): Normal activity
24h Observation ([6]; 250 mg/kg IP, mouse 7): Dead
½ h Observation ([6]; 250 mg/kg IP, mouse 7): Heavy breathing
24h Observation ([6]; 250 mg/kg IP, mouse 8): Dead
½ h Observation ([6]; 250 mg/kg IP, mouse 8): Scruffy, heavy breathing
24h Observation ([6]; 250 mg/kg IP, mouse 9): Euthanized
½ h Observation ([6]; 250 mg/kg IP, mouse 9): Normal activity
24h Observation ([6]; 500 mg/kg IP, mouse 10): Near death; scruffy; pale color
½ h Observation ([6]; 500 mg/kg IP, mouse 10): Scruffy, heavy breathing
24h Observation ([6]; 500 mg/kg IP, mouse 11): Euthanized
½ h Observation ([6]; 500 mg/kg IP, mouse 11): Scruffy, heavy breathing
24h Observation ([6]; 500 mg/kg IP, mouse 12): Euthanized
½ h Observation ([6]; 500 mg/kg IP, mouse 12): Scruffy, heavy breathing
animal weights during the 24 h period post-injection ([6]; IP, all doses): unchanged
dose tolerated up to 24 h post injection ([6]; IP, doses of 50, 100, 250, 500 mg/kg tested): 50 mg/kg
tolerability of the dose required for concentrations above the MIC for a substantial fraction of the dosing interval ([6]; mice): not tolerated
growth of Mtb in infected mouse macrophages (Mtb in mouse macrophages): inhibited growth of Mtb in a concentration-dependent manner
bactericidal activity when used individually (Mtb H37Rv strain): none of the compounds were bactericidal
toxicity for mouse macrophages (mouse macrophages): did not detect toxicity
impact of primary carbon source on MIC (Mtb [7]; [15]): little impact
impact of primary carbon source on minimal bactericidal concentration (Mtb [7]; [15]): little impact
increase of MIC by addition of biotin to the growth medium (Mtb [7]; with versus without biotin): fourfold
bioavailability (in vivo [8]; 25 mg/kg): 2%
AUC(0-t) (in vivo [8]; ip, 25 mg/kg): 31.8 µM·h
Cmax (in vivo [8]; ip, 25 mg/kg): 61.1 µM
AUC(0-t) (in vivo [8]; iv, 5 mg/kg): 2.5 µM·h
Cmax (in vivo [8]; iv, 5 mg/kg): 8.72 µM
AUC(0-t) (in vivo [8]; po, 25 mg/kg): 0.26 µM·h
Cmax (in vivo [8]; po, 25 mg/kg): 0.11 µM

CO[C@H]1/C=C/O[C@@]2(C)Oc3c(C)c(O)c4c(O)c(c(/C=N/N5CCN(C)CC5)c(O)c4c3C2=O)NC(=O)/C(C)=C\C=C\[C@H](C)[C@H](O)[C@@H](C)[C@@H](O)[C@@H](C)[C@H](OC(C)=O)[C@@H]1C [rifampicin]
amount accumulated in Mtb ∆bioA compared to wild-type (Mtb ∆bioA): increased amounts of rifampicin
change of MIC with decreasing concentrations of biotin (Mtb ∆bioA): decreased the MIC
effect of co-administration of doxycycline on exposure [9]: not affected
Rifampicin Cmax Mean (SD) [9, 16]: 5.49 (2.14) g/mL
AUC(0-t) (in vivo [10]; Rifampicin AUC[0-8] Mean (SD)): 30700 ng·h/mL
Cmax (in vivo [10]; Rifampicin Cmax Mean (SD)): 5210 ng/mL
killing of Mtb bioA TetON-1 in mouse lungs (bioA TetON-1 Mtb strain): more than 200 fold
CFU from lungs, BioA expression reduced (no doxycycline) compared to constitutive (bioA TetON-1 Mtb strain; mouse): fewer CFU
change of MIC by sublethal dose of Bio-AMS (Mtb H37Rv strain): reduced the MIC
bactericidal activity when used individually (Mtb H37Rv strain): none of the compounds were bactericidal
Mtb inoculum killed (Mtb H37Rv strain; rifampicin 6.5 nM combined with Bio-AMS 1 µM): more than 99.7%

NNC(=O)c1ccncc1 [isoniazid]
change of MIC by sublethal dose of Bio-AMS (Mtb H37Rv strain): unchanged

CC[C@@H](CO)NCCN[C@@H](CC)CO [ethambutol]
change of MIC with decreasing concentrations of biotin (Mtb ∆bioA): unchanged
change of MIC by sublethal dose of Bio-AMS (Mtb H37Rv strain): reduced the MIC
bactericidal activity when used individually (Mtb H37Rv strain): none of the compounds were bactericidal
Mtb inoculum killed (Mtb H37Rv strain; ethambutol 12.5 µM combined with Bio-AMS 1 µM): > 99.9%

C[C@H]1c2cccc(O)c2C(=O)C2=C(O)[C@]3(O)C(=O)C(C(N)=O)=C(O)[C@@H](N(C)C)[C@@H]3[C@@H](O)[C@@H]21 [doxycycline]
decrease in exposure ([9]; caused by seven daily doses of rifampicin, 8-hour period, P < 0.05): ~ 30%
AUC(0-t) [9, 17]: 4780 ng·h/mL
AUC(0-t) [9, 16]: 3360 ng·h/mL
Doxycycline Cmin Mean (SD) [9, 17]: 0.36 (0.09) g/mL
Doxycycline Cmin Mean (SD) [9, 16]: 0.26 (0.02) g/mL
Average lesion/plasma ratio (SD) ([11]; animal 1069, 200 ppm in chow, 44 lesions): 3.9 (2.6)
Average lesion/plasma ratio (SD) ([11]; animal 1071, 400 ppm in chow, 19 lesions): 5.4 (2.5)
Kp at 7 days (in vivo [12]; 200 ppm): 6.1
Kp at 7 days (in vivo [12]; 400 ppm): 3.7

Rv3406 (Mycobacterium tuberculosis H37Rv)
Km [13]: 424 ± 136 µM
kcat [13]: 0.00025 ± 1.7e-05 s⁻¹
kcat/Km [13]: 0.583 ± 0.12 M⁻¹ s⁻¹

O=C(O)CCC(=O)C(=O)O [α-KG, alpha-ketoglutarate]
Km (Rv3406 [14]): 9.4 ± 1.2 µM
kcat (Rv3406 [14]): 0.363 ± 0.0167 s⁻¹

CCCCC(CC)COS(=O)(=O)[O-].[Na+] (centres unmarked) [2-EHS, 2-ethylhexyl sulfate]
Km (Rv3406 [14]): 8.8 ± 0.5 µM
kcat (Rv3406 [14]): 0.32 ± 0.015 s⁻¹
